First: CCc1cc2c(cc1C(F)(F)F)NC(=O)CC(c1cccc(-c3cccnc3)c1)=N2 [Example 211, 7-Ethyl-4-(3-pyridin-3-yl-phenyl)-8-trifluoromethyl-1,3-dihydro-benzo[b][1,4]diazepin-2-one]
Second: O=C1CC(c2cccc(-c3cccnc3)c2)=Nc2cc(F)c(F)cc2N1 [Example 116, 7,8-Difluoro-4-(3-pyridin-3-yl-phenyl)-1,3-dihydro-benzo[b][1,4]diazepin-2-one]
The melting point of the first is lower: 197 to 198 °C for the first, 246 °C for the second.

Going from `Cc1cc(-c2cccc(C3=Nc4cc(F)c(F)cc4NC(=O)C3)c2)ccn1` [Example 115, 7,8-Difluoro-4-[3-(2-methyl-pyridin-4-yl)-phenyl]-1,3-dihydro-benzo[b][1,4]diazepin-2-one] to `Cc1cc(-c2cccc(C3=Nc4cc(F)c(F)cc4NC(=O)C3)c2)cc(C)n1` [Example 126, 7,8-Difluoro-4-[3-(2,6-dimethyl-pyridin-4-yl)-phenyl]-1,3-dihydro-benzo[b][1,4]diazepin-2-one], the melting point rises from 217 °C to 252 °C.

Compared with `O=C1CC(c2cccc(-c3ccncn3)c2)=Nc2ccc(Cl)cc2N1` [Example 299, 8-Chloro-4-(3-pyrimidin-4-yl-phenyl)-1,3-dihydro-benzo[b][1,4]diazepin-2-one], `O=C1CC(c2cccc(-c3cncnc3)c2)=Nc2ccc(Cl)cc2N1` [Example 94, 8-Chloro-4-(3-pyrimidin-5-yl-phenyl)-1,3-dihydro-benzo[b][1,4]diazepin-2-one] is higher in melting point: 220 to 233 °C for the first, 234 °C for the second.

First: COCCNc1nc(C)cc(-c2cccc(C3=Nc4cc(C)c(C(F)(F)F)cc4NC(=O)C3)c2)n1 [Example 324, 4-{3-[2-(2-Methoxy-ethylamino)-6-methyl-pyrimidin-4-yl]-phenyl}-7-methyl-8-trifluoromethyl-1,3-dihydro-benzo[b][1,4]diazepin-2-one]
Second: Cc1cc(-c2cccc(C3=Nc4cc(C)c(C(F)(F)F)cc4NC(=O)C3)c2)nc(N(C)C)n1 [Example 320, 4-[3-(2-Dimethylamino-6-methyl-pyrimidin-4-yl)-phenyl]-7-methyl-8-trifluoromethyl-1,3-dihydro-benzo[b][1,4]diazepin-2-one]
The melting point of the first is lower: 236 to 238 °C for the first, 248 to 252 °C for the second.

Compared with `O=C1CC(c2cccc(-c3ccccn3)c2)=Nc2cc(F)c(Cl)cc2N1` [Example 52, 8-Chloro-7-fluoro-4-(3-pyridin-2-yl-phenyl)-1,3-dihydro-benzo[b][1,4]diazepin-2-one], `Cc1cc2c(cc1Cl)N=C(c1cccc(-c3ccncc3)c1)CC(=O)N2` [Example 66, 7-Chloro-8-methyl-4-(3-pyridin-4-yl-phenyl)-1,3-dihydro-benzo[b][1,4]diazepin-2-one] is higher in melting point: 197 to 198 °C for the first, 236 °C for the second.

First: CCc1cc(-c2cccc(C3=Nc4cc(C)c(Cl)cc4NC(=O)C3)c2)ccn1 [Example 153, 8-Chloro-4-[3-(2-ethyl-pyridin-4-yl)-phenyl]-7-methyl-1,3-dihydro-benzo[b][1,4]diazepin-2-one]
Second: COCc1cc(-c2cccc(C3=Nc4cc(C)c(Cl)cc4NC(=O)C3)c2)ccn1 [Example 399, 8-Chloro-4-[3-(2-methoxymethyl-pyridin-4-yl)-phenyl]-7-methyl-1,3-dihydro-benzo[b][1,4]diazepin-2-one]
The melting point of the first is lower: 195 °C for the first, 216 °C for the second.

First: O=C1CC(c2cccc(-c3ccc(C4CC4)nc3)c2)=Nc2ccc(OC(F)(F)F)cc2N1 [Example 207, 4-[3-(6-Cyclopropyl-pyridin-3-yl)-phenyl]-8-trifluoromethoxy-1,3-dihydro-benzo[b][1,4]diazepin-2-one]
Second: N#Cc1ccc(-c2cccc(C3=Nc4ccc(C(F)(F)F)cc4NC(=O)C3)c2)cn1 [Example 204, 5-[3-(4-Oxo-7-trifluoromethyl-4,5-dihydro-3H-benzo[b][1,4]diazepin-2-yl)-phenyl]-pyridine-2-carbonitrile]
The melting point of the first is lower: 190 to 191 °C for the first, 234 to 237 °C for the second.

First: CN(C)c1cc2c(cc1C(F)(F)F)NC(=O)CC(c1cccc(-c3ncccn3)c1)=N2 [Example 337, 7-Dimethylamino-4-(3-pyrimidin-2-yl-phenyl)-8-trifluoromethyl-1,3-dihydro-benzo[b][1,4]diazepin-2-one]
Second: Cc1cc(-c2cccc(C3=Nc4cc(N(C)C(C)C)c(C(F)(F)F)cc4NC(=O)C3)c2)ccn1 [Example 363, 7-(Isopropyl-methyl-amino)-4-[3-(2-methyl-pyridin-4-yl)-phenyl]-8-trifluoromethyl-1,3-dihydro-benzo[b][1,4]diazepin-2-one]
The melting point of the first is higher: 221 to 223 °C for the first, 207 °C for the second.

Compared with `CC(C)CN(C)c1cc2c(cc1C(F)(F)F)NC(=O)CC(c1cccc(-c3ccnc(CO)c3)c1)=N2` [Example 366, 4-[3-(2-Hydroxymethyl-pyridin-4-yl)-phenyl]-7-(isobutyl-methyl-amino)-8-trifluoromethyl-1,3-dihydro-benzo[b][1,4]diazepin-2-one], `CC(C)Cc1cc(-c2cccc(C3=Nc4cc(Cl)c(C(F)(F)F)cc4NC(=O)C3)c2)ccn1` [Example 278, 7-Chloro-4-[3-(2-isobutyl-pyridin-4-yl)-phenyl]-8-trifluoromethyl-1,3-dihydro benzo[b][1,4]diazepin-2-one] is higher in melting point: 130 °C for the first, 213 °C for the second.

Compared with `CC(C)c1ccc(-c2cccc(C3=Nc4ccc(C(F)(F)F)cc4NC(=O)C3)c2)cn1` [Example 177, 4-[3-(6-Isopropyl-pyridin-3-yl)-phenyl]-8-trifluoromethyl-1,3-dihydro-benzo[b][1,4]diazepin-2-one], `CCc1ccc(-c2cccc(C3=Nc4ccc(C(F)(F)F)cc4NC(=O)C3)c2)cn1` [Example 191, 4-[3-(6-Ethyl-pyridin-3-yl)-phenyl]-8-trifluoromethyl-1,3-dihydro-benzo[b][1,4]diazepin-2-one] is higher in melting point: 194 °C for the first, 211 °C for the second.

Compared with `Cc1cc2c(cc1C(F)(F)F)NC(=O)CC(c1cccc(-c3ccnc(C)c3C)c1)=N2` [Example 141, 4-[3-(2,3-Dimethyl-pyridin-4-yl)-phenyl]-7-methyl-8-trifluoromethyl-1,3-dihydro benzo[b][1,4]diazepin-2-one], `CCc1cnc(C)cc1-c1cccc(C2=Nc3cc(C)c(C(F)(F)F)cc3NC(=O)C2)c1` [Example 148, 4-[3-(5-Ethyl-2-methyl-pyridin-4-yl)-phenyl]-7-methyl-8-trifluoromethyl-1,3-dihydro benzo[b][1,4]diazepin-2-one] is lower in melting point: 222 °C for the first, 182 °C for the second.

First: Cc1nccc(-c2cccc(C3=Nc4ccc(C(F)(F)F)cc4NC(=O)C3)c2)n1 [Example 304, 4-[3-(2-Methyl-pyrimidin-4-yl)-phenyl]-8-trifluoromethyl-1,3-dihydro-benzo[b][1,4]diazepin-2-one]
Second: CNc1cc(-c2cccc(C3=Nc4cc(C)c(C(F)(F)F)cc4NC(=O)C3)c2)ncn1 [Example 330, 7-Methyl-4-[3-(6-methylamino-pyrimidin-4-yl)-phenyl]-8-trifluoromethyl-1,3-dihydro-benzo[b][1,4]diazepin-2-one]
The melting point of the first is lower: 212 to 226 °C for the first, 232 to 233 °C for the second.

Compared with `Cc1cc(-c2cccc(C3=Nc4cc(C)c(Cl)cc4NC(=O)C3)c2)nc(N)n1` [Example 316, 4-[3-(2-Amino-6-methyl-pyrimidin-4-yl)-phenyl]-8-chloro-7-methyl-1,3-dihydro-benzo[b][1,4]diazepin-2-one], `Cc1cncc(-c2cccc(C3=Nc4cc(Cl)c(C)cc4NC(=O)C3)c2)n1` [Example 132, 7-Chloro-8-methyl-4-[3-(6-methyl-pyrazin-2-yl)-phenyl]-1,3-dihydro-benzo[b][1,4]diazepin-2-one] is higher in melting point: 242 to 243 °C for the first, 254 °C for the second.

Going from `CC(C)Cc1cc(-c2cccc(C3=Nc4cc(Cl)c(Cl)cc4NC(=O)C3)c2)ccn1` [Example 279, 7,8-Dichloro-4-[3-(2-isobutyl-pyridin-4-yl)-phenyl]-1,3-dihydro-benzo[b][1,4]diazepin-2-one] to `Cc1cc2c(cc1Cl)NC(=O)CC(c1cccc(-c3ccc(C(C)C)nc3)c1)=N2` [Example 179, 8-Chloro-4-[3-(6-isopropyl-pyridin-3-yl)-phenyl]-7-methyl-1,3-dihydro-benzo[b][1,4]diazepin-2-one], the melting point falls from 204 °C to 190 °C.

Going from `Cc1cc(-c2cccc(C3=Nc4cc(C)c(C(F)(F)F)cc4NC(=O)C3)c2)cc(CO)n1` [Example 402, 4-[3-(2-Hydroxymethyl-6-methyl-pyridin-4-yl)-phenyl]-7-methyl-8-trifluoromethyl-1,3-dihydro-benzo[b][1,4]diazepin-2-one] to `COCc1cc(-c2cccc(C3=Nc4cc(C)c(C(F)(F)F)cc4NC(=O)C3)c2)ccn1` [Example 361, 4-[3-(2-Methoxymethyl-pyridin-4-yl)-phenyl]-7-methyl-8-trifluoromethyl-1,3-dihydro-benzo[b][1,4]diazepin-2-one], the melting point rises from 200 °C to 225 °C.

Compared with `O=C1CC(c2cccc(-c3cccnc3)c2)=Nc2ccccc2N1` [Example 34, 4-(3-Pyridin-3-yl-phenyl)-1,3-dihydro-benzo[b][1,4]diazepin-2-one], `O=C1CC(c2cccc(-c3cccnc3)c2)=Nc2ccc(C#Cc3ccccc3)cc2N1` [Example 175, 8-Phenylethynyl-4-(3-pyridin-3-yl-phenyl)-1,3-dihydro-benzo[b][1,4]diazepin-2-one] is higher in melting point: 210 to 211 °C for the first, 241 °C for the second.

First: Cc1cc2c(cc1C(F)(F)F)NC(=O)CC(c1cccc(-c3ccnc(C(F)(F)F)c3)c1)=N2 [Example 265, 7-Methyl-8-trifluoromethyl-4-[3-(2-trifluoromethyl-pyridin-4-yl)-phenyl]-1,3-dihydro-benzo[b][1,4]diazepin-2-one]
Second: CCOc1cc2c(cc1C(F)(F)F)NC(=O)CC(c1cccc(-c3cnc(C)cc3C)c1)=N2 [Example 252, 4-[3-(4,6-Dimethyl-pyridin-3-yl)-phenyl]-7-ethoxy-8-trifluoromethyl-1,3-dihydro-benzo[b][1,4]diazepin-2-one]
The melting point of the first is higher: 247 °C for the first, 226 to 228 °C for the second.

In the case of `COc1ccc2c(c1)N=C(c1cccc(-c3cccnc3)c1)CC(=O)N2` [Example 55, 7-Methoxy-4-(3-pyridin-3-yl-phenyl)-1,3-dihydro-benzo[b][1,4]diazepin-2-one], the melting point is reported as 219 °C (dec.).

Source: patent publication US6949542B2, “Dihydro-benzo[b][1,4]diazepin-2-one derivatives” (Hoffman-La Roche Inc., priority 2002, dated 2005)
